Like-named read-outs stand apart in the source and are kept apart here.
Legend:
[1] = system: passive cutaneous anaphylaxis (PCA); experiment: Inhibitory effect on passive cutaneous anaphylaxis (PCA) in rats; type: in vivo, rat (male Wistar); conditions: Rattus norvegicus; 20 mg/kg, oral, 1 hour before antigen challenge; read-out: Inhibition (PCA in rats)
Protocol: (1) Inhibitory effect on passive cutaneous anaphylaxis (PCA) in rats:
This test was carried out by the method of Perper et al. [cf.
Male Wistar rats (130-180 g) were injected with 0.1 ml of a dilute solution of mouse antiserum to egg albumin in two sites of the shaved ventral skin. Forty-eight hours later each rat was challenged by an intravenous injection of 2 mg of the antigen together with 1 ml of a 0.5% Evan's blue saline solution. The rats were sacrificed 30 minutes after the challenge. The area of the blueing lesions was measured on the undersurface of the skin. The average value of the two lesions of each rat was regarded as the response of the rat. Test compounds in a dose of 20 mg/kg, dissolved or suspended in a 0.5% aqueous tragacanth solution, were administered orally 1 hour before the antigen challenge. The inhibitory rate was determined by comparing the responses of the rats given each test compound with those of the rats given only a 0.5% aqueous tragacanth solution. Each group of 3 rats was used for each test compound. The mouse antiserum to egg albumin was produced by the method of Levine and Vaz [cf. Int. Arch. Allergy Appl.

5-lipoxygenase = biological target: T1, 5-lipoxygenase (Cavia porcellus, UniProt A0A286X958); experiment: Inhibitory effect on 5-lipoxygenase activity in guinea pig leukocytes; type: biochemical, guinea pig (male Hartley); conditions: 10^-5 M; read-out: 5-Lipoxygenase inhibit. activity, Inhibition
T1 construct: The cytosol fraction of peritoneal exudate cells from male Hartley guinea pigs (400-700 g) was used as 5-lipoxygenase; from tissue; host or cells: cytosol fraction of peritoneal exudate cells (leukocytes) of male Hartley guinea pigs
T1 sequence (A0A286X958 1-674): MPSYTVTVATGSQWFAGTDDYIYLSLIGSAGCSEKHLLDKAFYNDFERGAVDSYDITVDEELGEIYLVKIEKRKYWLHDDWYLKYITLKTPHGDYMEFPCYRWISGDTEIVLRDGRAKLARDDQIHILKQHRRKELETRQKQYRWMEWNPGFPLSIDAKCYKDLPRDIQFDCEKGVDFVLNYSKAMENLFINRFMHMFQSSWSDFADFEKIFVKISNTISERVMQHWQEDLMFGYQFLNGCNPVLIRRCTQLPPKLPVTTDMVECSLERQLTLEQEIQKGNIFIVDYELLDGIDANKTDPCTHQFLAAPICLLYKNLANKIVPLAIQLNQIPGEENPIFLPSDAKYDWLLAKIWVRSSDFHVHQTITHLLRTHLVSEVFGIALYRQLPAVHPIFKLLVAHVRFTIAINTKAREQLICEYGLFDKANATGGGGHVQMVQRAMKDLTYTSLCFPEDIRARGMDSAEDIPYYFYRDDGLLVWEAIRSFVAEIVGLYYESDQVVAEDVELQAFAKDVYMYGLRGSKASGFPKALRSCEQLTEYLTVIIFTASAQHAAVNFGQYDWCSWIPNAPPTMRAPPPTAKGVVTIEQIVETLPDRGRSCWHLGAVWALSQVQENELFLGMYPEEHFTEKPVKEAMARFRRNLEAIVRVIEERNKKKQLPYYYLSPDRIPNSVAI
Protocol: (1) Inhibitory effect on 5-lipoxygenase activity in guinea pig leukocytes:
This test was carried out by the method of Miyamoto and Obata (cf. "Perspectives in Prostaglandin Research," ed. by Y. Shiokawa et al., Excepta Medica, Amsterdam-Oxford-Princeton, 1983, p78) with minor modifications.
The cytosol fraction of peritoneal exudate cells from male Hartley guinea pigs (400-700 g) was used as 5-lipoxygenase. The standard reaction mixture contained 50 mM potassium phosphate buffer, 1 mM CaCl2, 1 mM glutathione, 1 mM adenosine triphosphoric acid, 10 μM indomethacin and the enzyme. The mixture was incubated for 5 minutes at 30° C. after addition of [1-^14 C]arachidonic acid (0.02 μCi). The reaction was terminated by addition of 0.6 ml of the cold organic solvents (diethyl ether/methanol/0.2M citric acid=30/4/1). The organic layer (300 μl) was applied onto a precoated silica gel 60F254 glass plate (E. Merck, West Germany). Radioactivity on the plate was monitored by a radiochromatogram scanner (Packard, U.S.A.). 5-Lipoxygenase activity was calculated according to the following equation. [formula]
The effects of the test compounds were expressed in terms of percent inhibition.

[2] = system: contact hypersensitivity to oxazolone; experiment: Inhibitory effect on contact hypersensitivity to oxazolone in mice; type: in vivo, mouse (male ICR); conditions: topical, 0.3 mg/ear; 24 hours after challenge
Protocol: (3) Inhibitory effect on contact hypersensitivity to oxazolone in mice:
This test was carried out by the method of Evans et al. [cf. Brit.
Male ICR mice (18-20 g) were used. The abdominal region of the mice was carefully clipped with an electric clipper, and 0.1 ml of a 0.5 w/v % oxazolone solution in absolute ethanol was gently rubbed into the clipped area. Five days after the sensitization 20 μl of a 0.5 w/v % oxazolone solution in acetone or chloroform, or the solution containing test compound was applied to both sides of the right ear. The left ear was not treated. Twenty-four hours after the challenge, the animals were sacrificed with diethyl ether. The circular parts (5.5 mm in diameter) of both ears were removed by punching and then weighed. The inhibitory rate was determined by comparing the ear swelling of the mice treated with oxazolone containing test compound with that of the mice treated with oxazolone. Each group of 8 mice was used for each dose of the test compound.

experimental asthma = experiment: Inhibitory effect on experimental asthma in rats; type: in vivo, rat (male Wistar); conditions: Rattus norvegicus, po, 1 hour before antigen challenge
Protocol: (2) Inhibitory effect on experimental asthma in rats: This test was carried out by the method of Church and Miller [cf. Brit. […] Male Wistar rats (200-250 g) were sensitized by an intraperitoneal injection of 1 ml of a 0.01% egg albumin solution containing 1 mg of Al(OH)3. Two weeks later, the rats were anesthetized with 1.3 g/kg of urethane. The trachea and jugular vein were cannulated. Respiratory volume and velocity were measured by attaching one end of the tracheal cannula to respiratory volume meter connected to a carrier amplifier and an integrator. The rats were challenged by an intravenous injection of 4 mg/kg of egg ablumin 30 minutes after the anesthesia. Test compounds, dissolved or suspended in a 0.5% aqueous tragacanth solution, were administered orally 1 hour before the antigen challenge. Each group of 4 rats was used for each dose of the test compound. ED50 values were calculated from the best fit linear regression line of inhibitory rates of respiratory volume and velocity in each dose.

[3] = system: histamine-induced contraction of isolated guinea pig trachea; experiment: Inhibitory effect on histamine-induced contraction of isolated guinea pig trachea; parameters: species or system guinea pig (male Hartley)
Protocol: (2) Inhibitory effect on histamine-induced contraction of isolated guinea pig trachea:
Male Hartley guinea pigs (400-700 g) were used. Zig-zag strips of guinea pig trachea were prepared by the method of Emmerson and Mackay [cf. J. Pharm. […] Dose-response curves for histamine were obtained before and 5 minutes after the addition of test compounds. Inhibitory rate was calculated from contraction heights in 3×10^-5 M of histamine without vs. with test compound.

Structure (SMILES)	inhibition in vivo at 20 mg/kg [1] [%]	inhibition at 10 µM (5-lipoxygenase) [%]	other results
Cc1ncccc1C=CC(=O)NCCCCN1CCN(C(c2ccccc2)c2ccccc2)CC1 [Example 53]	68.8	–	–
O=C(C=Cc1ccc(O)nc1)NCCCCN1CCN(C(c2ccccc2)c2ccccc2)CC1 [Example 44]	–	45.5	–
Cc1ccc(O)c(C=CC(=O)NCCCCN2CCN(C(c3ccccc3)c3ccccc3)CC2)n1 [Example 20]	–	68.6	–
O=C(C=CC=Cc1cccnc1)NCCCCN1CCN(C(c2ccccc2)c2ccccc2)CC1 [Example 85]	66.4	–	–
Cc1ccc(C=CC(=O)NCCCCN2CCN(C(c3ccccc3)c3ccccc3)CC2)c(C)n1 [Example 50]	66.8	61.2	–
O=C(C=Cc1cccnc1)NCC=CCN1CCN(C(c2ccccc2)c2ccccc2)CC1 [Example 90, N-[3-(3-pyridyl)acryloyl]-4-(4-diphenylmethyl-1-piperazinyl)-2-butenylamin]	83.3	–	% Inhibition of ear swelling [2]: 46.3%
O=C(NCCCCN1CCN(C(c2ccccc2)c2ccccc2)CC1)/C(=C/c1cccnc1)c1ccccc1 [Example 79]	58	–	–
O=C(C=Cc1cccnc1)NCCCCN1CCN(C(c2ccc(F)cc2)c2ccc(F)cc2)CC1 [Example 62]	56.1	–	–
Cc1ccc(C(c2ccccc2)N2CCN(CCCCNC(=O)C=Cc3ccc(C)nc3)CC2)cc1 (centres unmarked) [Example 48]	73.9	–	–
O=C(C=Cc1ccc(Oc2cccc(F)c2)nc1)NCCCCN1CCN(C(c2ccccc2)c2ccccc2)CC1 [Example 29]	60.7	–	–
C/C(=C\c1ccc(C)nc1)C(=O)NCCCCN1CCN(C(c2ccccc2)c2ccccc2)CC1 [Example 77]	58.2	–	–
Cc1ccc(C(c2ccccc2)N2CCN(CCCCNC(=O)C=Cc3cccnc3)CC2)cc1 (centres unmarked) [Example 58]	82.9	–	–
COc1ccc(C=CC(=O)NCCCCN2CCN(C(c3ccccc3)c3ccccc3)CC2)cn1 [Example 25]	–	66.2	–
O=C(C=Cc1cccnc1)NCCCCN1CCN(C(c2ccccc2)c2ccccc2)CC1 [Example 1, N-[3-(3-pyridyl)acryloyl]-4-(4-diphenylmethyl-1-piperazinyl)butylamine]	62.3	–	ED50 (experimental asthma; respiratory velocity, read-out: ED50, respiratory velocity): 14.1 mg/kg; ED50 (experimental asthma; respiratory volume, read-out: ED50, respiratory volume): 13.3 mg/kg; IC50 ([3]; 3×10^-5 M histamine, isolated guinea pig trachea, read-out: Anti-hist. activity IC50): 960 nM; antihistamine activity (in words) ([3]; compared with ketotifen fumarate): potent antihistamine activity, though fairly inferior to that of ketotifen fumarate
Cc1ncc(C=CC(=O)NCCCCN2CCN(C(c3ccccc3)c3ccccc3)CC2)c(CO)c1O [Example 38, N-[3-(5-hydroxy-4-hydroxymethyl-6-methyl-3-pyridyl)acryloyl]-4-(4-diphenylmethyl-1-piperazinyl)butylamine]	–	72.7	% Inhibition of ear swelling [2]: 83.8%
O=C(C=Cc1cncc(F)c1)NCCCCN1CCN(C(c2ccccc2)c2ccccc2)CC1 [Example 3, N-[3-(5-fluoro-3-pyridyl)acryloyl]-4-(4-diphenylmethyl-1-piperazinyl)butylamine]	65	–	–
O=C(C=CC=Cc1cccnc1)NCCCN1CCN(C(c2ccccc2)c2ccccc2)CC1 [Example 84]	–	60.3	–
O=C(C=Cc1cncc(Cl)c1)NCCCCN1CCN(C(c2ccccc2)c2ccccc2)CC1 [Example 47]	66.4	–	–
O=C(C=Cc1cccnc1)NCCCCN1CCN(C(c2ccccc2)c2ccc(Br)cc2)CC1 (centres unmarked) [Example 64]	55.8	–	–
Cc1ccc(C=CC(=O)NCCCCCN2CCN(C(c3ccccc3)c3ccccc3)CC2)cn1 [Example 15]	–	48.6	–
O=C(C=Cc1ccccn1)NCCCCN1CCN(C(c2ccccc2)c2ccccc2)CC1 [Example 11]	–	59.6	–
O=C(C=Cc1ccc(Cl)nc1)NCCCCN1CCN(C(c2ccccc2)c2ccccc2)CC1 [Example 37]	–	54.6	–
CC/C(=C\c1cccnc1)C(=O)NCCCCN1CCN(C(c2ccccc2)c2ccccc2)CC1 [Example 5, N-[3-(3-pyridyl)-2-ethylacryloyl]-4-(4-diphenylmethyl-1-piperazinyl)butylamine sesquifumarate]	67.8	–	–
O=C(C=Cc1cccnc1)NCCCCN1CCCN(C(c2ccccc2)c2ccccc2)CC1 [Example 6, N-[3-(3-pyridyl)acryloyl]-4-(4-diphenylmethyl-1-homopiperazinyl)butylamine1/4 hydrate]	70	–	–
C/C(=C\c1cccnc1)C(=O)NCCCCN1CCN(C(c2ccccc2)c2ccccc2)CC1 [Example 76]	78.9	43.5	% Inhibition of ear swelling [2]: 65.8%
Cc1ccc(C=CC=CC(=O)NCCCCN2CCN(C(c3ccccc3)c3ccccc3)CC2)cn1 [Example 87]	68.8	–	–
